Source: patent US9247741B2, “Use of macrocyclic picolinamides as fungicides” (DOW AGROSCIENCES LLC, priority 2013, dated 2016)

Experiments:
Type in all cases: in vivo
[1] = system: Uncinula necator; assay: Grape powdery mildew (UNCINE) disease control; settings: Erysiphe necator, 24 h, 1 Day Protectant, read-out: UNCINE disease control rating
Description: Technical grades of materials were dissolved in acetone, which were then mixed with nine volumes of water containing 110 ppm Triton X-100. The fungicide solutions were applied onto wheat seedlings using an automated booth sprayer to run-off. All sprayed plants were allowed to air dry prior to further handling. All fungicides were evaluated using the aforementioned method for their activity vs. all target diseases. Wheat leaf blotch and brown rust activity were also evaluated using track spray applications, in which case the fungicides were formulated as EC formulations, containing 0.1% Trycol 5941 in the spray solutions. Wheat plants (variety Yuma) were grown from seed in a greenhouse in 50% mineral soil/50% soil-less Metro mix until the first leaf was fully emerged, with 7-10 seedlings per pot. These plants were inoculated with an aqueous spore suspension of Septoria tritici either prior to or after fungicide treatments. After inoculation the plants were kept in 100% relative humidity (one day in a dark dew chamber followed by two to three days in a lighted dew chamber at 20° C.) to permit spores to germinate and infect the leaf. The plants were then transferred to a greenhouse set at 20° C. for disease to develop. When disease symptoms were fully expressed on the l^st leaves of untreated plants, infection levels were assessed on a scale of 0 to 100 percent disease severity. Percent disease control was calculated using the ratio of disease severity on treated plants relative to untreated plants. Evaluation of Fungicidal Activity: Grape Powdery Mildew (Uncinula necator; Bayer Code […]) Grape seedlings (variety Carignane) were grown in soil-less Metro mix, with one plant per pot, and used in the test when approximately one month old. Plants were inoculated 24 hr after fungicide treatment by shaking spores from infected leaves over test plants. Plants were maintained in a greenhouse set at 20° C. until disease was fully developed. Fungicide formulation, application and disease assessment on the sprayed leaves followed the procedures as described in the Example A.

[2] = system: Rhyncosporium secalis; assay: Barley scald (RHYNSE) disease control; settings: Hordeum vulgare, 24 h, 1 Day Protectant, read-out: RHYNSE disease control rating
Description: Technical grades of materials were dissolved in acetone, which were then mixed with nine volumes of water containing 110 ppm Triton X-100. The fungicide solutions were applied onto wheat seedlings using an automated booth sprayer to run-off. All sprayed plants were allowed to air dry prior to further handling. All fungicides were evaluated using the aforementioned method for their activity vs. all target diseases. Wheat leaf blotch and brown rust activity were also evaluated using track spray applications, in which case the fungicides were formulated as EC formulations, containing 0.1% Trycol 5941 in the spray solutions. Wheat plants (variety Yuma) were grown from seed in a greenhouse in 50% mineral soil/50% soil-less Metro mix until the first leaf was fully emerged, with 7-10 seedlings per pot. These plants were inoculated with an aqueous spore suspension of Septoria tritici either prior to or after fungicide treatments. After inoculation the plants were kept in 100% relative humidity (one day in a dark dew chamber followed by two to three days in a lighted dew chamber at 20° C.) to permit spores to germinate and infect the leaf. The plants were then transferred to a greenhouse set at 20° C. for disease to develop. When disease symptoms were fully expressed on the l^st leaves of untreated plants, infection levels were assessed on a scale of 0 to 100 percent disease severity. Percent disease control was calculated using the ratio of disease severity on treated plants relative to untreated plants. Evaluation of Fungicidal Activity: Barley Scald (Rhyncosporium secalis; Bayer code […]) Barley seedlings (variety Harrington) were propagated in soil-less Metro mix, with each pot having 8 to 12 plants, and used in the test when first leaf was fully emerged. Test plants were inoculated by an aqueous spore suspension of Rhyncosporium secalis 24 hr after fungicide treatments. After inoculation the plants were kept in a dew room at 20° C. with 100% relative humidity for 48 hr. The plants were then transferred to a greenhouse set at 20° C. for disease to develop. Fungicide formulation, application and disease assessment on the sprayed leaves followed the procedures as described in the Example A.

[3] = system: Glomerella lagenarium; Anamorph: Colletotrichum lagenarium; assay: Cucumber anthracnose (COLLLA) disease control; settings: Colletotrichum orbiculare, 24 h, 1 Day Protectant, read-out: COLLLA disease control rating
Description: Technical grades of materials were dissolved in acetone, which were then mixed with nine volumes of water containing 110 ppm Triton X-100. The fungicide solutions were applied onto wheat seedlings using an automated booth sprayer to run-off. All sprayed plants were allowed to air dry prior to further handling. All fungicides were evaluated using the aforementioned method for their activity vs. all target diseases. Wheat leaf blotch and brown rust activity were also evaluated using track spray applications, in which case the fungicides were formulated as EC formulations, containing 0.1% Trycol 5941 in the spray solutions. Wheat plants (variety Yuma) were grown from seed in a greenhouse in 50% mineral soil/50% soil-less Metro mix until the first leaf was fully emerged, with 7-10 seedlings per pot. These plants were inoculated with an aqueous spore suspension of Septoria tritici either prior to or after fungicide treatments. After inoculation the plants were kept in 100% relative humidity (one day in a dark dew chamber followed by two to three days in a lighted dew chamber at 20° C.) to permit spores to germinate and infect the leaf. The plants were then transferred to a greenhouse set at 20° C. for disease to develop. When disease symptoms were fully expressed on the l^st leaves of untreated plants, infection levels were assessed on a scale of 0 to 100 percent disease severity. Percent disease control was calculated using the ratio of disease severity on treated plants relative to untreated plants. Evaluation of Fungicidal Activity: Cucumber Anthracnose (Glomerella lagenarium; Anamorph: Colletotrichum lagenarium; Bayer Code COLLLA) Cucumber seedlings (variety Bush Pickle) were propagated in soil-less Metro mix, with each pot having one plant, and used in the test when 12 to 14 days old. Test plants were inoculated with an aqueous spore suspension of Colletotrichum lagenarium 24 hr after fungicide treatments. After inoculation the plants were kept in a dew room at 22° C. with 100% relative humidity for 48 hr to permit spores to germinate and infect the leaf. The plants were then transferred to a growth room set at 22° C. for disease to develop. Fungicide formulation, application and disease assessment on the sprayed leaves followed the procedures as described in the Example A.

Measured: pest or weed control at 100 ppm

CCCC[C@H]1[C@H](C)OC(=O)[C@@H](NC(=O)c2nccc(OC)c2OCOC(C)=O)CCC[C@@H]1Oc1ccccc1 [Compound 33]
> 70%: all assays above

CCCC[C@H]1[C@H](C)OC(=O)[C@@H](NC(=O)c2nccc(OC)c2OCOC(C)=O)CCC[C@@H]1OCC1CC1 [Compound 73]
> 70%: all assays above

CCCO[C@H]1CCC[C@H](NC(=O)c2nccc(OC)c2OC(C)=O)C(=O)O[C@@H](C)[C@@H]1CCC(C)C [Compound 74, 2-(((3S,7S,8S,9S)-8-isopentyl-9-methyl-2-oxo-7-propoxyoxonan-3-yl)carbamoyl)-4-methoxypyridin-3-yl acetate]
> 70%: all assays above

CCCO[C@H]1CCC[C@H](NC(=O)c2nccc(OC)c2OC(C)=O)C(=O)O[C@@H](C)[C@@H]1Cc1ccccc1 [Compound 70]
> 70%: all assays above

COc1ccnc(C(=O)N[C@H]2CCC[C@H](Oc3ccccc3)[C@@H](CCC(C)C)[C@H](C)OC2=O)c1OCOC(C)=O [Compound 40]
> 70%: all assays above

COc1ccnc(C(=O)N[C@H]2CCC[C@H](Oc3ccccc3)[C@@H](CCC(C)C)[C@H](C)OC2=O)c1OC(C)=O [Compound 36]
> 70%: all assays above

COc1ccnc(C(=O)N[C@H]2CCC[C@H](OCC3CC3)[C@@H](Cc3ccc(F)cc3)[C@H](C)OC2=O)c1OCOC(C)=O [Compound 61]
> 70%: all assays above

CCCO[C@H]1CCC[C@H](NC(=O)c2nccc(OC)c2OCOC(C)=O)C(=O)O[C@@H](C)[C@@H]1CCC(C)C [Compound 25, ((2-(((3S,7S,8S,9S)-8-isopentyl-9-methyl-2-oxo-7-propoxyoxonan-3-yl)carbamoyl)-4-methoxypyridin-3-yl)oxy)methyl acetate]
> 70%: all assays above
